This note sets out measurements from US4599362A, “2-aryl-ethyl ether derivatives and insecticidal and acaricidal agents containing said derivatives” (priority 1980, dated 1986).

Data set [1] concerns sensitive green rice leafhopper (collected at Chigasaki). As to the kind of experiment: Test 3: Effect on Sensitive Green Rice Leafhopper. The data set is classed as in vivo. As to conditions: female adults, 24 hours. A digest of the protocol: (§1)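 Rice seedlings (2–3 leaves) sprayed with emulsifiable-concentrate dilutions at 100 or 20 ppm, 3 ml per pot, air-dried, then infested with 10 female adults per pot. Mortality counted after 24 h and averaged over three pots.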

Data set [2] deals with resistant green rice leafhopper (collected at Nakagawara). As to the kind of experiment: Test 3: Effect on Resistant Green Rice Leafhopper. Type of data set: in vivo, Nephotettix cincticeps Uhler. The note with it: resistant, female adults, 24 hours. The procedure, abridged: as §1
The test system of the next data set is male mice. The data set is described as follows: Test 9: Toxicity Test (acute oral, mice). As to conditions: male mice; oral, corn oil; 7 days. The procedure, abridged:
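Compound dissolved or suspended in corn oil was given orally to male mice of 19–23 g body weight, at 0.2 ml per 10 g. Deaths and effects were recorded after 7 days.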

The subject of the next data set is two-spotted spider mite. As to the kind of experiment: Test 6: Effect on Two-Spotted Spider mite adults. The data set is classed as in vivo. As to conditions: 500 ppm; adults; 24 hours. A digest of the protocol:
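Kidney bean leaf discs (15 mm) on wet cotton, each holding 10 adult mites, sprayed with 3 ml of a 500 ppm dilution of an emulsifiable concentrate. Kept at 25° C; dead adults counted after 24 hours to give mortality, averaged over three discs.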

Take “Pyrethrin [Comparative Compound (c), reference compound]”: the “Mortality (%) Green Rice Leafhopper Collected at Chigasaki” value in data set [1] (20 ppm) and in data set [1] (100 ppm) was 0% in each case. Moreover, the “Mortality (%) Green Rice Leafhopper Collected at Nakagawara” value in data set [2] (20 ppm) and in data set [2] (100 ppm) was 0% throughout. In addition, the “Acute Toxicity at Oral Administration, LD-50” value with male mice came out at 340 mg/kg. The “Mortality (%)” value with two-spotted spider mite was 0%.
